From US6245758A, “Methods of use for peroxynitrite decomposition catalysts, pharmaceutical compositions therefor” (priority 1996, dated 2001) come the findings set out here.

For one experiment, the system named is CuZnSOD. Put plainly: Protection of CuZnSOD from inactivation by peroxynitrite using peroxynitrite decomposition catalysts. The experiment is classed as biochemical, bovine. Particulars: Fe(III)TMPyP 0.5 and 1.0 uM, Fe(III)TMPS 1.0 and 5.0 uM; peroxynitrite 0-100 uM. The procedure:
Assay solutions were prepared as described above except for the addition of various of peroxynitrite decomposition catalyst. The final solution volume was maintained at 10 mL. Thus, to the assay solutions Fe(III)TMPyP (0.5 and 1.0 uM final concentration) and Fe(III)TMPS (1.0 and 5.0 uM final concentration) was added. The solution were then treated with various amounts of peroxynitrite such that the final concentrations of 0,25, 50, 75 and 100 uM were achieved. Following treatment with peroxynitrite EDTA was added to a final concentration of 250 uM. The solutions were then assayed for SOD activity.

Another experiment concerns RAW 264.7 cells. Briefly: Cell protection assay, Alamar Blue viability after peroxynitrite challenge. The experiment is classed as cell-based, murine. Particulars: for protection of cells from PN-mediated injury: PN 500 micromolar, RAW cells, FIG. 9 (H2 TMPyP and ZnTMPyP: data not shown). The procedure:
FIG. 8: Comparison of Ni and Fe Catalyst Protection of RAW Cells from PN(peroxynitrite)-mediated Injury. RAW 264.7 cells were plated at approximately 2×10^5 per well of a 96-well plate. […] Each condition represents the mean of 4 wells ±sem.
FIG. 9: Protection from PN-mediated RAW Cell Injury by Fe Catalysts. Cells were treated with 500 micromolar PN in the presence or the absence of the following catalysts: FeTMPyP, FeTMPS, FeTPPS. Cell viability was monitored as described in the text and figure legends 1, 2 and 3. Values represent the mean of 4 determinations ±sem.
Protocol for Cell Protection Assays using Peroxynitrite Decomposition Catalysts: A cell viability assay was established to rapidly assess the efficacy of peroxynitrite(PN) catalysts in protecting cells from PN25 mediated injury and death. The peroxynitrite challenge consisted of a pulse of synthetic PN added exogenously to cells. In order to better assess the efficacy of PN catalysts in protecting cells from PN-mediated damage, a quantity of peroxynitrite(in 50 mM NaOH) determined to cause maximal injury(100%) was added as an exogenous pulse to each well of cells in the presence or absence of catalyst. The NaOH vehicle was not toxic by itself.
Cells(RAW 264.7 cells or P815 mastocytoma cells; American Type Culture Collection, Rockville, Md.) were plated to confluence on 96-well tissue culture plates. Each well is washed twice with Dulbecco's phosphate buffered saline(DPBS; GIBCO BRL, Grand Island, N.Y.) to remove protein and other serum components which might react with the exogenous peroxynitrite. To each well is then added 200 μl of DPBS. PN is next placed into separate wells at increasing concentrations and cell viability monitored. The dose at which maximal cell death is attained is then utilized for the catalyst protection assessment.
Phosphate-buffered saline (200 uL) containing increasing concentrations of catalyst is next placed into individual wells of cells. The maximal dose of PN is subsequently administered to all wells of cells. After 15 minutes, the medium is removed from each well and the cells are either allowed to recover overnight in Earles minimum essential medium without phenol red and supplemented with 10% fetal bovine serum or alternatively the plate of cells is assayed that day for mitochondrial integrity using the Alamar Blue viability assay(Alamar Biosciences, Inc.; Sacramento, Calif.). In either case, cells are incubated at 37° C. in 5% CO2.
Cell injury is measured as follows. Briefly, 10% Alamar Blue(v/v) in Earles MEM with 10% FBS is added to each well of cells for 1-2h. Cell metabolism of the dye generates a fluorescent product which is directly related to the number of viable cells. Moreover, the production of the fluorescent metabolite is linear for over 2 h. The amount of fluorescent product in 100 μl of conditioned medium from each well of cells is then measured with an IDEXX fluorescent plate reader (gain setting of 1%) at an emission wavelength of 575 nm after exciting at 545 nm. Viability is either given as absolute fluorescent units or as a percent of the value obtained for untreated cells(100%).

In the case of `CC(=O)[O-].Cc1c(-c2c3nc(c(-c4c(C)c(S(=O)(=O)[O-])c(C)c(S(=O)(=O)[O-])c4C)c4ccc([n-]4)c(-c4c(C)c(S(=O)(=O)[O-])c(C)c(S(=O)(=O)[O-])c4C)c4nc(c(-c5c(C)c(S(=O)(=O)[O-])c(C)c(S(=O)(=O)[O-])c5C)c5ccc2[n-]5)C=C4)C=C3)c(C)c(S(=O)(=O)[O-])c(C)c1S(=O)(=O)[O-].[Fe+3].[Na+].[Na+].[Na+].[Na+].[Na+].[Na+].[Na+].[Na+]` [Fe(III)TMPS, Acetato-5,10,15,20-tetrakis(3,5-disulfonatomesityl)porphyrin Iron (III) octasodium salt], in the experiment with CuZnSOD, the “protection of CuZnSOD against inactivation by peroxynitrite” value is reported as “concentration dependant protection of CuZnSOD against inactivation by peroxynitrite”. Moreover, in the experiment with RAW 264.7 cells, the “protection of cells from PN-mediated injury” value is given as “significant protection of cells”.

Take `CC(=O)[O-].C[n+]1ccc(-c2c3nc(c(-c4cc[n+](C)cc4)c4ccc([n-]4)c(-c4cc[n+](C)cc4)c4nc(c(-c5cc[n+](C)cc5)c5ccc2[n-]5)C=C4)C=C3)cc1.Cc1ccc(S(=O)(=O)[O-])cc1.Cc1ccc(S(=O)(=O)[O-])cc1.Cc1ccc(S(=O)(=O)[O-])cc1.Cc1ccc(S(=O)(=O)[O-])cc1.[Fe+3]` [Fe(III)TMPyP, Acetato (5,10,15,20-tetrakis(N-methyl-4-pyridyl)porphinato) iron (III) tetra-tosylate]: the “protection of CuZnSOD against inactivation by peroxynitrite” value with CuZnSOD is on record as “concentration dependant protection of CuZnSOD against inactivation by peroxynitrite”. Moreover, the “protection of RAW 264.7 cells from PN-mediated injury” value in the experiment on RAW 264.7 cells (PN 360 micromolar, Alamar Blue, FIG. 8) is “total protection from PN-mediated injury”. In addition, the “protection of cells from PN-mediated injury” value with RAW 264.7 cells is listed as “significant protection of cells”.
